The results in this text go back to ChEMBL document CHEMBL1149093, “Design and synthesis of new templates derived from pyrrolopyrimidine as selective multidrug-resistance-associated protein inhibitors in multidrug resistance” (J Med Chem, 2004).

Data set [1] can be described thus: in vivo. To be noted: mouse, ip, 50 mg/kg.
Data set [2] is described as follows: in vivo. As to conditions: mouse, plasma, ip, 50 mg/kg.
A short description of data set [3]: in vivo. As to conditions: mouse, plasma, iv, 20 mg/kg.
Data set [4] is described as follows: in vivo. To be noted: mouse, iv, 20 mg/kg.
A short description of data set [5]: in vivo. As to conditions: mouse, ip, 50 mg/kg. This is another data set of the same source.
Data set [6] in a line: in vivo. To be noted: mouse, iv, 20 mg/kg. This is another data set of the same source.

The half-life is the time needed for the level to fall by half in the phase considered. Read a low half-life as rapid decline. Broadly, the Cmax is the maximum level reached in the sampled fluid or tissue. Usually AUC stands for the area under the concentration-time curve, a measure of exposure. The low end stands for low exposure, the high end for high exposure. With `O=[N+]([O-])c1cc([N+](=O)[O-])c2[nH]c3c(N4CCN(CCc5ccc(F)c(F)c5)CC4)nc(CN4CCOCC4)nc3c2c1`, the half-life in data set [1] was 6.86 h; in data set [4] it was 2.4 h. The Cmax is 26.4 µM in data set [2] and 9 µM in data set [3]. Besides, the AUC stood at 30600 ng·h/mL in data set [5] and 5100 ng·h/mL in data set [6].

As for `Cn1c2ccnc(N3CCOCC3)c2c2ncnc(N3CCN(CCc4ccc(F)c(F)c4)CC3)c21`, the peak concentration (Cmax) in data set [3] came to 11.9 µM. For the same compound, the half-life in data set [4] was 1.97 h. Further, the AUC in data set [6] came out at 6320 ng·h/mL.

Take `Cn1c2cccc(C(N)=O)c2c2nc(CN3CCOCC3)nc(N3CCN(CCc4ccc(F)c(F)c4)CC3)c21`: in data set [3], the concentration peaked (Cmax) at 15 µM. Moreover, the half-life in data set [4] was 3.03 h. Besides, in data set [6], the AUC came out at 14000 ng·h/mL.
